Columns and labels:
[1] = target: T1, type II phosphodiesterase (Rattus norvegicus, UniProt Q01062); assay: Phosphodiesterase inhibition activity (in vitro), Type II; type: biochemical; conditions: Type II phosphodiesterase column
T1 construct: purified from rat heart muscle cells; from tissue; host or cells: rat heart, soluble fraction, Q Sepharose
T1 sequence (Q01062 1-928): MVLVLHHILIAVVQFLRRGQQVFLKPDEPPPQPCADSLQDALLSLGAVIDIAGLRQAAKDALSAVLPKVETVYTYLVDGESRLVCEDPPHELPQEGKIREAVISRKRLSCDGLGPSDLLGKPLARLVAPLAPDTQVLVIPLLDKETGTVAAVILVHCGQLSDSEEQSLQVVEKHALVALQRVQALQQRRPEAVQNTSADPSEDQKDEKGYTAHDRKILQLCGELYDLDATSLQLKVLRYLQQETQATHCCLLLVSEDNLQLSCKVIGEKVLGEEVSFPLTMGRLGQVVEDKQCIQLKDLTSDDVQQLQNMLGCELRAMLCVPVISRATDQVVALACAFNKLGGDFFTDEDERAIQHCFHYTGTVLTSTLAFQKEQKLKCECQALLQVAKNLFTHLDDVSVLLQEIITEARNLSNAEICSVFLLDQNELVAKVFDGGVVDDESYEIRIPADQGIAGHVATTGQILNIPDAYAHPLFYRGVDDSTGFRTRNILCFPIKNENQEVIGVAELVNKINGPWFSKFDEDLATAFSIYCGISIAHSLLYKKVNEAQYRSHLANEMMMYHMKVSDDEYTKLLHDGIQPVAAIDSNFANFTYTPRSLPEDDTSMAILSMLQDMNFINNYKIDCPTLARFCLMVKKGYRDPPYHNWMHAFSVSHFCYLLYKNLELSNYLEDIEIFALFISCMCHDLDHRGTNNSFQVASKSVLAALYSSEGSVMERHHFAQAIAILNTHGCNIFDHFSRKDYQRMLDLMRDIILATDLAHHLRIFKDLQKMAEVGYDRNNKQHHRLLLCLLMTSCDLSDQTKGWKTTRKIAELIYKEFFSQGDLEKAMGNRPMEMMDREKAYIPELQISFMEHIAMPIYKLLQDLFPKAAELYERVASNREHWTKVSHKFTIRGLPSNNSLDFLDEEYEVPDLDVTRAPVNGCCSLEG
Description: (§1) (A) In order to evaluate selectivity of the compounds of the present invention for type IV phosphodiesterase, types I, II, III and V phosphodiesterase isozymes were purified in the following manner.
1) Solutions containing various phosphodiesterase (types I, II and III) isozymes were purified from rat heart muscle cells in the following manner. Under ether anesthesia, Wistar rat was subjected to thoracotomy to excise the heart. After removing blood by perfusion with physiological saline supplemented with heparin (1 unit/ml), the heart was finely chopped with scissors. This was suspended in buffer A (20 mM Bis-Tris, 5 mM dithioerythritol, 2 mM EGTA and 50 mM sodium acetate, pH 6.5) containing a protease inhibitor (50 μM phenyl-methyl-sulfonyl-fluoride, 5 μM pepstatin A, 40 μM leupeptin, 20 μM aprotinin or 2 mM benzamidine) and then the cells were disrupted using polytron and sonicator and subjected to ultracentrifugation (4° C., 100,000×g, 60 minutes) to give a soluble fraction.
(§2) 2) Solutions containing various phosphodiesterase isozymes were obtained from the thus obtained soluble fraction in the following manner. The thus, obtained soluble fraction was applied to a column of 1.6×10.0 cm packed with Q Sepharose which had been equilibrated with buffer A. Next, said column was washed with 300 ml of buffer A to remove non-absorbed protein. Phosphodiesterase was eluted with 200 ml of buffer A having 0.05 to 1.25M linear gradient of sodium acetate to collect about 40 fractions each containing 5.0 ml eluate. Each fraction was checked for cAMP- and cGMP-metabolizing phosphodiesterase activities. Of these fractions, a fraction having only cAMP-metabolizing activity and showing disappearance of the metabolizing activity by 0.1 μM cilostamide (a type III phosphodiesterase selective inhibitor) was used as the type III phosphodiesterase. […] These fractions were separately collected to be used as phosphodiesterase (types I, II and III) stock solutions for the examination of selectivity. p1 3) A solution containing type V phosphodiesterase was prepared from peripheral blood of a healthy person in the following manner. A 200 ml portion of physiological saline supplemented with dextran (3%) was added to 500 ml of heparinized peripheral blood and incubated at 37° C. for 40 minutes to effect precipitation of erythrocytes. The supernatant fluid after precipitation of erythrocytes was recovered and centrifuged once, and the resulting precipitate was suspended in buffer B (140 mM NaCl, 5 mM KCl, 5 mm glucose and 10 mM HEPES, pH 7.4), overlaid on a solution for density gradient centrifugation use (Ficoll solution) and then centrifuged at room temperature for 40 minutes at 450×g, thereby separating monocyte fraction and granulocyte fraction. The granulocyte fraction was washed once with buffer C (140 mM NaCl, 5 mM KCl, 1 mM CaCl2, 1 mM MgCl2, 5 mM glucose and 10 mM HEPES, pH 7.4) and suspended in buffer D (20 mM Bis-Tris, 5 mM dithioerythritol, 2 mM EGTA and 50 mM sodium acetate, pH 6.5) containing a protease inhibitor (40 μM leupeptin, 5 μM pepstatin A, 20 μM aprotinin, 50 μM phenyl-methyl-sulfonyl-fluoride or 2 mM benzamidine) and then the cells were disrupted using polytron and sonicator and subjected to ultracentrifugation (4° C., 100,000×g, 60 minutes) to give a soluble fraction.
(§3) (B) Inhibitory activities were measured using the thus obtained stock solutions of various phosphodiesterase isozymes.
(§4) 1) A predetermined amount of each compound to be tested was subjected to 10 minutes of reaction at 30° C. in a reaction mixture containing 40 mM Tris-HCl (pH 8.0), 5 mM MgCl2, 4 mM 2-mercaptoethanol, 10 μM rolipram (a type IV phosphodiesterase selective inhibitor), 1 μM cAMP, 10 nM ^3 H-cAMP (in the case of type V phosphodiesterase, 1 μM cAMP and 10 nM ^3 H-cAMP are replaced by 1 μM cGMP and 100 nM ^3 H-cGMP) and each of the isozyme stock solutions. […]

type V phosphodiesterase = target: T2, type V phosphodiesterase (Homo sapiens, UniProt O76074); assay: Phosphodiesterase inhibition activity (in vitro), Type V; type: biochemical, human (peripheral blood of a healthy person); conditions: 1 μM cGMP
T2 construct: from tissue; host or cells: human peripheral blood granulocyte fraction, soluble, Q Sepharose
Description: as §1, §2
4) The thus obtained soluble fraction was applied to a column of 1.6×10 cm packed with Q Sepharose which had been equilibrated with buffer D. Next, the column was washed with 120 ml of buffer D to remove non-absorbed protein. Phosphodiesterase was eluted with 300 ml of buffer D having 0.05 to 1.25M linear gradient of sodium acetate to collect fractions each containing 5.0 ml eluate. Each fraction was checked for cAMP- and cGMP-metabolizing phosphodiesterase activities. Fractions having only cGMP metabolizing activity were collected to be used as the type V phosphodiesterase stock solution.
as §3
as §4, with “solutions. After completion of the reaction, the reaction mixture was boiled at 90° C. for 1 minute, ice-cooled, mixed with 1 unit of 5'-nucleotidase and then subjected to 10 minutes of reaction at 30° C., and the reaction was stopped by adding 1 ml of methanol.” for “solutions.”

IC50 [1]: > 3000 nM
IC50 (type V phosphodiesterase): 1050 nM
SMILES: CCc1cc(C)c2c(-c3cccc(Cl)c3)cc(=O)n(CC)c2n1 [Example 39, 4-(3-Chlorophenyl)-1,7-diethyl-5-methyl-1,8-naphthyridin-2(1H)-one]

Source: US5817670A, “Naphthyridine derivatives and pharmaceutical compositions thereof” (Yamanouchi Pharmaceutical Co., Ltd., priority 1994, dated 1998)
